Marks after values point to notes of the source that are not given here.
What was measured:
Tyrosinase = Tyrosinase inhibition assay (L-DOPA substrate); format: biochemical; conditions: 10 μM compounds dissolved in DMSO
Protocol: Tyrosinase inhibition was calculated based on previously described methods using L-DOPA as the substrate. Tyrosinase inhibition depended upon the amount of dopachrome produced in the reaction mixture. Absorption was measured at 490 nm to calculate the amount of dopachrome produced. The assay was performed in 96-well clear polystyrene plates using FLUOstar OPTIMA plate reader. The tyrosinase inhibitory effect of sample was measured using the following the Equation (1).

[1] = Oxygen radical absorbance capacity (ORAC) assay; conditions: 1 μM compounds dissolved in DMSO; Trolox equivalence; mean ± SD
Protocol: ORAC assay is based on the free radical damage to a fluorescence probe measured by fluorescence intensity over the time. The fluorescein sodium salt was used as fluorescence probe and change in its intensity was estimated as the index of the degree of free radical damage. Assay was performed using method described elsewhere. Briefly, the standards and samples were prepared using 75 mM phosphate buffer (pH 7). As the peroxy radicals are generated from decomposition of 2,2'-azobis(2-amidino-propane) dihydrochloride (AAPH), the signal was quenched from fluorescein. However, in the presence of antioxidant samples the fluorescence signal can be stabilize which depends directly upon the antioxidant’s capacity to neutralize the free radical. Quadratic relation emerging from florescent area under the decaying curve was used to calculate antioxidant capacity as mmol Trolox equivalence per L.

[2] = DPPH· free radical scavenging assay; conditions: for IC50: DPPH· scavenging, 0.2 mM DPPH· in DMSO, absorbance 515 nm
Protocol: DPPH^· assay is widely used to observe radical scavenging activity of various compounds and extracts. DPPH^· is stable N radical which is reduced to hydrazine during its reaction with hydrogen donors.
Initially, 0.2 mM DPPH^· solution was prepared using DMSO as the solvent. […] During reduction of DPPH^· solution by antiradical compound, absorption of DPPH^· was measured at 515 nm. The spectrophotometric data was acquired using BMG FLUOstar OPTIMA spectrophotometer (BMG Labtech, Durham, NC, USA) and the IC50 values were calculated.

[3] = Ferric reducing ability of plasma (FRAP) assay; conditions: 10 μM compounds dissolved in DMSO; Trolox equivalence; mean ± SD
From the text: The FRAP assay uses antioxidants in a redox-linked colorimetric assay to reduce ferric tripyridyl triazine to ferrous form at low pH [20].
FRAP assay is based on ferric to ferrous ion reduction to test the electron donating capacity of antioxidants. The assay was modified by using the 96-well microplate reader with an injection port system. Briefly, the FRAP working reagent was made using acetate buffer, 2,4,6-Tris (2-pyridyl)-s-triazine solution and ferric chloride in the ratio 10:1:1. […] After 6 min reaction time, absorbance was measured at 593 nm. Trolox standards at different concentrations were used to calculate the antioxidant capacity as mmol Trolox equivalence per L.

[4] = system: angiotensin converting enzyme (ACE); assay: Angiotensin converting enzyme (ACE) inhibition assay; format: biochemical; conditions: 10 μM compounds dissolved in DMSO
Protocol: ACE assay is based on ACE inhibitory activity of test samples. The enzyme activity was measured by production of hippuric acid from the substrate hippuryl-L-histidyl-L-leucine (HHL). ACE cleaves the substrate to expose a free N-terminus, which was fluorogenically labeled with o-phthaldialdehyde (OPA). The florescence signal was measured by using excitation of 350 nm and emission of 500 nm. ACE inhibition activity of samples was measured using the following equation: % inhibition = 100 − (Acontrol − Asample)/Acontrol × 100 (1) where A is the absorbance Equation (1).

HIV-1 protease = target: T1, HIV-1 protease (Human immunodeficiency virus type 1 group M subtype B, UniProt P04585); assay: HIV-1 protease inhibition assay (fluorescent substrate); format: biochemical; conditions: 10 μM compounds dissolved in DMSO; read-out: % Enzyme Inhibition HIV-I protease
T1 construct: HIV-1 protease enzyme (Sigma Aldrich); purchased Sigma Aldrich
Protocol: HIV-1 protease inhibition was performed by using a previously described method. HIV protease fluorescent substrate and HIV-1 protease enzyme (Sigma Aldrich) were used to determine HIV inhibition capacity of sample. Three primary controls i.e., blank, sample and positive control were used. Reaction mixture of 200 µL comprised of five enzyme units (5U) of HIV-1 protease along with 0.5 pmol of enzyme substrate. After addition of both enzymes and substrates, test compounds were added in different concentrations. Reaction mixture was incubated at 37 °C which leads to generation of fluorescence signal by cleaving Tyr-Pro peptide bond of the substrate. Finally reaction mixture was heated for 5 minutes at 90 °C to stop the reaction. The mixture was centrifuged at 12,000 rpm for 3 min. and supernatant was used to measure the fluorescence signal. The enzyme inhibition was calculated using the Equation (1).

[5] = system: human endothelial lung cells; assay: Cytotoxicity analysis by LDH release assay; format: cell-based; conditions: 10 µM, 24 hours
Protocol: In the current study authors conducted a toxicology study to confirm safety of compounds and their dosage for potential animal or clinical studies. The study was conducted at 10 µM concentration using human endothelial lung cells. […] Literature reports on cytotoxic behavior of potent natural antioxidants are rare. Research in the field of free radicals mainly deals with screening of novel antioxidants and their mechanism of action.
Human lung cell line (ATCC® PCS-100-022™) was purchased from American Type Culture Collection (Cederlane, Burlington, ON, Canada). Cell lines were maintained and grown in DMEM complete growth media, supplemented with 10% fetal bovine serum (FBS), 100 units/mL penicillin and 100 µg/mL streptomycin (Cederlane) at 37 °C, in a humidified 5% CO2 incubator. Cell growth medium was changed every 48 hours and when cells reached 80% confluence, they were detached from 75 cm^2 tissue culture flask using 0.25% trypsin-EDTA treatment. The detached cells were collected in sterile tube in FBS free media. Collected cells were then counted using the Millipore Scepter 2.0 handheld automated cell counter. Further assay specific analysis was performed as described in section 2.10.
Cytotoxicity assay was performed using Promega Cytotox 96® non-radioactive colorimetric assay (Promega Corporation). The assay measures the lactate dehydrogenase (LDH) release upon cell lysis. The released LDH from cells was measured in an enzymatic assay based on conversion of tetrazolium salt to a red formazan product. Briefly, 5,000 human endothelial lung cells in 100 µL of serum-free culture medium were seeded in 96 well sterile plates. Cells were allowed to adhere to the plates for 24 h at 37 °C in a humidified, 5% CO2 incubator. After 24 h, the serum-free media was replaced by test compounds in 100 µL of serum-free culture medium. […] The test compounds at 10 µM concentration were allowed to interact with cells for 24 hours after which absorbance were recorded at 490 nm using BMG FLUOstar OPTIMA spectrophotometer (BMG Labtech, Durham, NC). […]

COc1ccc(/C=C/C(O)=C2\CC/C(=C\c3ccc(OC)cc3)C2=O)cc1 [Compound 3c]
% Enzyme Inhibition Tyrosinase (Tyrosinase): 58.54 ^g % | ORAC antioxidant capacity [1]: 1.17 ± 0.1 ^b mmole TE/L | antiradical capacity lower than other series 3 analogues (fold) ([2]; DPPH assay, relative to other curcumin analogues in series 3): approximately 10 fold | IC50 [2]: 340 µM | FRAP antioxidant capacity [3]: 1.09 ± 0.1 ^gh mmole TE/L | % Enzyme Inhibition ACE [4]: 67.42 ^cd % | inhibition at 10 µM (HIV-1 protease): 35.9% | cytotoxicity ranking (LDH release), in words [5]: highest cytotoxic behavior

O=C1/C(=C(O)/C=C/c2ccc(Cl)cc2)CC/C1=C\c1ccc(Cl)cc1 [Compound 3f]
% Enzyme Inhibition Tyrosinase (Tyrosinase): 61.31 ^e % | ORAC antioxidant capacity [1]: 1.30 ± 0.02 ^b mmole TE/L | radical scavenging capacity higher than curcumin (fold) ([2]; DPPH assay, relative to curcumin): over 10 fold | IC50 [2]: 90 µM | FRAP antioxidant capacity [3]: 1.09 ± 0.1 ^gh mmole TE/L | % Enzyme Inhibition ACE [4]: 75.12 ^bc % | inhibition at 10 µM (HIV-1 protease): 23.3% | cytotoxicity ranking (LDH release), in words [5]: lowest cytotoxicity effects

Reference: paper PMC6270194 (Molecules, 2013)
